Paper PMC10645073, “Interaction of gallium, indium and vanadyl diacetylcurcumin complexes with lysozyme: mechanistic aspects and evaluation of antiamyloidogenic activity” (Royal Society Open Science, 2023)

Legend:
[1] = target: T1, hen egg white lysozyme (HEWL) (Gallus gallus, UniProt P00698); assay: Synchronous fluorescence spectroscopy of HEWL; assay type: binding; conditions: Δλ = 60 nm
T1 construct: whose 129 amino acid residues are linked together by four disulfide bridges to form a single polypeptide chain; purchased Sigma-Aldrich L6876; host or cells: hen egg white (natural source, per the protein's name)
Procedure: To obtain synchronous fluorescence spectra, simultaneous scanning of excitation and emission monochromators was performed in such a way as to maintain a constant wavelength interval between them. The changes in the molecular microenvironment of tyrosine and tryptophan residues of HEWL were monitored by fixing the wavelength interval (Δλ = λem − λex) individually at 15 and 60 nm, respectively. The concentrations of HEWL and three metal complexes of diacetylcurcumin were the same as those mentioned for the intrinsic fluorescence spectroscopy.
To investigate the effect of the metal complexes of diacetylcurcumin on the conformation of tyrosine and tryptophan residues of HEWL, synchronous fluorescence spectra of HEWL were recorded alone and in the presence of the metal complexes (electronic supplementary material, figure S5). By fixing the Δλ value, i.e. the difference between excitation and emission wavelengths, at 15 and 60 nm, synchronous fluorescence spectroscopy provides useful information on the microenvironmental changes of tyrosine and tryptophan residues of proteins, respectively. As shown in the electronic supplementary material, figure S5, all three metal complexes of diacetylcurcumin strongly quench the emission fluorescence of HEWL at both 15 and 60 nm. […] At Δλ = 15 nm, no shift in the emission maximum of HEWL is observed, whereas at Δλ = 60 nm, a 2 nm blue shift is observed in the emission spectrum of tryptophan residues of the protein after the interaction with the metal complexes of diacetylcurcumin except for the VO(DAC)2 complex. […] Overall, it can be concluded that the formation of HEWL/metal complex bioconjugates is associated with the binding of three metal complexes of diacetylcurcumin to both tyrosine and tryptophan residues in which the conformational changes can occur only around the tryptophan residues of the protein. It should be noted that the reduction in the polarity of the microregions surrounding tryptophan residues of the protein has already been observed by the intrinsic emission fluorescence titrations (see §3.1.1.).

mouse lymphoma cells = system: mouse lymphoma cells; design: method as in PMID 16171869; conditions: read-out: IC50 cytotoxicity; cited from earlier work
[2] = target: T1, hen egg white lysozyme (HEWL); assay: Intrinsic fluorescence quenching of HEWL (Stern-Volmer, double logarithmic and van't Hoff analysis); assay type: binding; conditions: for KSV (Stern-Volmer quenching constant): HEWL 3 µM; for kq (bimolecular quenching rate constant): kq = KSV/τ0, τ0 10^−8 s
Procedure: The intrinsic fluorescence spectra of HEWL (3 µM) in the absence and presence of Ga(DAC)3, In(DAC)3 and VO(DAC)2 complexes were collected using a Varian Cary Eclipse fluorescence spectrophotometer equipped with a 10 mm quartz cell by adjusting the excitation wavelength to 295 nm and setting the width of both excitation and emission slits at 5 nm. After adding the mentioned concentrations of the metal complexes of diacetylcurcumin to HEWL solution, the samples were scanned in the wavelength range of 300–500 nm. Corrections were made for the inner filter effect on the fluorescence spectra according to the following equation: Fcor=Fobs×10^(Aex+Aem)/2, where Fcor is corrected fluorescence intensity, Fobs is the observed (uncorrected) fluorescence intensity, Aex is the absorbance at the fluorescence excitation wavelength and Aem is the absorbance at the selected fluorescence emission wavelength.
The fluorescence quenching process of HEWL in the presence of three metal complexes of diacetylcurcumin can be quantified according to the well-known Stern-Volmer equation:3.1 F0/F=1+KSV[Q]=1+kqτ0[Q],
where F0 and F represent the intrinsic emission intensities of HEWL fluorophores, respectively, in the absence and presence of the metal complexes of diacetylcurcumin, and [Q] is the molar concentration of quencher. KSV, kq and τ0 denote the Stern-Volmer quenching constant, bimolecular quenching rate constant, and the average lifetime of fluorophore without quencher, respectively. The value of KSV, as a parameter of the sensitivity of the fluorophore to a quencher, can be estimated from the slope of the linear plot of F0/F as a function of [Q] (figure 2d,e,f; electronic supplementary material, figure S1). To obtain more accurate quantification of fluorescence data, the total area of the emission fluorescence peaks (S0 and S) was applied instead of the emission fluorescence intensities (F0 and F). The fluorescence quenching phenomenon can be generally divided into two distinct classes: static quenching and dynamic quenching. Owing to the reciprocal and direct correlations between the KSV parameter and temperature, respectively, for static and dynamic quenching, the observed trend in the KSV value versus temperature can be used to distinguish these mechanisms from each other. In dynamic quenching, an increase in temperature leads to faster diffusion of molecules by which weakly bound nonfluorescent complexes are further dissociated, and the value of KSV increases. From the data recorded in table 1, it can be seen that the KSV value of HEWL/Ga(DAC)3 and HEWL/In(DAC)3 systems decreases as temperature increases, while it increases with increasing temperature for the HEWL/VO(DAC)2 system. […] Considering a lifetime value of 10^−8 s for the native fluorophores, [27] the equation kq = KSV/τ0 gives the kq values greater than the diffusion-limited quenching value of 2.0 × 10 ^+ 10 M^−1 s^−1 for all systems.
Assuming that all the binding sites of HEWL are identical and independent and an equilibrium interaction is established between HEWL and each of the metal complexes of diacetylcurcumin, the fluorescence quenching process can be further analysed by the following double logarithmic equation:3.2 log(F0−F/F)=logKb+nlog[Q], where Kb and n represent the binding constant and number of binding sites on each HEWL molecule, respectively. Plotting log[(F0 − F)/F] versus log[Q] produces a straight line whose slope and intercept can be used respectively to estimate the values of n and Kb (electronic supplementary material, figures S2A, S2B, S2C and S3). […] In other words, the resulting bioconjugates are the product of the interaction between HEWL and the metal complexes of diacetylcurcumin with a 1 : 1 stoichiometry. […]

Aβ42 = conditions: copper-induced Aβ42 cross-linking; cited from earlier work

For `COc1cc(C=CC(=O)C=C([O-])C=Cc2ccc(OC(C)=O)c(OC)c2)ccc1OC(C)=O.COc1cc(C=CC(=O)C=C([O-])C=Cc2ccc(OC(C)=O)c(OC)c2)ccc1OC(C)=O.COc1cc(C=CC(=O)C=C([O-])C=Cc2ccc(OC(C)=O)c(OC)c2)ccc1OC(C)=O.[Ga+3]` [Ga(DAC)3, gallium diacetylcurcumin], the “microenvironment of tryptophan residues of HEWL” value [1] is given as “more hydrophobic”, the IC50 (mouse lymphoma cells) is given as 25 to 30 µM and the “n (number of binding sites on each HEWL molecule)” value ([2]; T 293 K) is given as “(0.92 ± 0.02)”. For the same molecule, the “ΔG^0 (Gibbs free energy change of binding)” value ([2]; T 293 K) was -5.081 ± 0.139 kcal/mol, the “KSV (Stern-Volmer quenching constant)” value ([2]; T 293 K) was “(1.46 ± 0.02) × 10^+4 M^−1” and the “kq (bimolecular quenching rate constant)” value ([2]; T 293 K) was “(1.46 ± 0.02) × 10^+12 M^−1 s^−1”. For the same molecule, the “n (number of binding sites on each HEWL molecule)” value ([2]; T 303 K) was “(0.80 ± 0.02)”, the “ΔG^0 (Gibbs free energy change of binding)” value ([2]; T 303 K) was -5.057 ± 0.139 kcal/mol and the “KSV (Stern-Volmer quenching constant)” value ([2]; T 303 K) was “(1.30 ± 0.01) × 10^+4 M^−1”. For the same molecule, the “kq (bimolecular quenching rate constant)” value ([2]; T 303 K) was “(1.30 ± 0.01) × 10^+12 M^−1 s^−1”, the “n (number of binding sites on each HEWL molecule)” value ([2]; T 308 K) was “(0.89 ± 0.02)” and the “ΔG^0 (Gibbs free energy change of binding)” value ([2]; T 308 K) was -5.045 ± 0.139 kcal/mol. The “KSV (Stern-Volmer quenching constant)” value ([2]; T 308 K) was “(1.25 ± 0.01) × 10^+4 M^−1”, the “kq (bimolecular quenching rate constant)” value ([2]; T 308 K) was “(1.25 ± 0.01) × 10^+12 M^−1 s^−1” and the “blue shift of HEWL emission maximum on quenching” value ([2]; excitation 295 nm, emission maximum 345 nm) was 4 nm. For the same molecule, the fluorescence quenching mechanism ([2]; from KSV versus temperature and kq) was “static mechanism”, the “main forces / modes of interaction stabilizing the bioconjugate” value ([2]; from signs of ΔH^0 and ΔS^0) was “van der Waals interactions and hydrogen bonds” and the “binding constant, order of magnitude” value ([2]; summary of table 1) was 10^+3 M^−1. The “ΔH^0 (enthalpy change of binding)” value ([2]; van't Hoff plot over 293–308 K) was -5.817 ± 0.0406 kcal/mol and the “ΔS^0 (entropy change of binding)” value ([2]; van't Hoff plot over 293–308 K) was −10.50 ± 0.55 J mol^−1 K^−1.
For `COc1cc(C=CC(=O)CC(=O)C=Cc2ccc(O)c(OC)c2)ccc1O` [curcumin, 1,7-bis(4-hydroxy-3-methoxyphenyl)-1,6-heptadiene-3,5-dione], the IC50 (mouse lymphoma cells) is given as 25 to 30 µM.
For CRANAD-17, the “effect on Aβ amyloid formation” value (Aβ42) is given as “considerably reduces Aβ amyloid formation”.
